Laboratory results as given in PubChem BioAssay (NCI).
Values joined by “and” are separate entries in the source; they are usually repeats but may differ in a detail not shown here. Identical values can stand only once.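 Tested at 5 concentrations; 48 h exposure; 96-well plates; endpoints linearly interpolated, else capped at highest concentration. Here, GI50 denotes the concentration required for 50% inhibition of growth. TGI marks complete inhibition of growth.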

Key:
Experiment in all cases: inhibition of tumour cell growth, NCI panel, 48 h
A549 NSCLC = tested on: A549 NSCLC
HCT-116 colon = tested on: HCT-116 colon
HL-60(TB) leukemia = tested on: HL-60(TB) leukemia
HOP-92 NSCLC = tested on: HOP-92 NSCLC
K-562 leukemia = tested on: K-562 leukemia
M14 melanoma = tested on: M14 melanoma
NCI-H226 lung = tested on: NCI-H226 lung
OVCAR-8 ovarian = tested on: OVCAR-8 ovarian
U251 CNS = tested on: U251 CNS
UO-31 renal = tested on: UO-31 renal

SMILES	GI50 (A549 NSCLC)	TGI (A549 NSCLC)	GI50 (HCT-116 colon)	TGI (HCT-116 colon)	GI50 (HL-60(TB) leukemia)	TGI (HL-60(TB) leukemia)	GI50 (HOP-92 NSCLC)	TGI (HOP-92 NSCLC)	GI50 (K-562 leukemia)	TGI (K-562 leukemia)	GI50 (M14 melanoma)	TGI (M14 melanoma)	GI50 (NCI-H226 lung)	TGI (NCI-H226 lung)	GI50 (OVCAR-8 ovarian)	TGI (OVCAR-8 ovarian)	GI50 (U251 CNS)	TGI (U251 CNS)	GI50 (UO-31 renal)	TGI (UO-31 renal)
CC(C)[C@@H]1CC[C@]2(CO2)[C@@H]2C(=O)OCC(C(=O)O)=C[C@H]21	1.57 µM	> 100 µM	0.325 µM	> 100 µM	0.328 µM	1.7 µM	0.235 µM	0.79 µM	0.334 µM	> 100 µM	0.273 µM	0.898 µM	0.667 µM	> 100 µM	0.351 µM	> 100 µM	0.343 µM	> 100 µM	0.408 µM	15.9 µM
CC(=O)Oc1ccc(C2=Cc3ccc(OC(C)=O)cc3OC2C)cc1 (stereo unspecified)	6.29 µM	> 100 µM	4.87 µM	17.9 µM	0.645 µM	4.86 µM	6.74 µM	> 100 µM	3.05 µM	> 100 µM	4.11 µM	38.1 µM	4.96 µM	53.8 µM	4.41 µM	> 100 µM	4.91 µM	79.9 µM	2.05 µM	6.65 µM
Cn1c(=O)c2nc3sc4c(n3c2n(C)c1=O)C(=O)c1ccccc1C4=O	–	> 100 µM	–	> 71.4 µM	–	45.3 µM	–	> 42.7 µM	–	> 100 µM	–	> 100 µM	–	> 87.2 µM	–	> 74.2 µM	–	> 57.5 µM	–	> 76 µM
COc1ccc(-c2nc3ccc(Cc4ccc5nc(-c6ccc(OC)cc6)[nH]c5c4)cc3[nH]2)cc1	0.0438 µM	0.237 µM	0.0339 µM	0.14 µM	< 0.0145 µM	0.079 µM	0.394 µM	2.26 µM	< 0.01 µM	0.159 µM	< 0.01 µM	0.111 µM	0.475 µM	2.56 µM	0.0438 µM	1.17 µM	0.028 µM	0.162 µM	0.217 µM	2.09 µM
O=NN(CCCl)C(=O)NC1CCC(CC(=O)O)CC1 (stereo unspecified)	–	> 100 µM	–	> 100 µM	–	> 100 µM	–	> 100 µM	–	> 100 µM	–	> 100 µM	–	> 100 µM	–	> 100 µM	–	> 100 µM	–	> 100 µM
CN(C)c1ccc(-c2cc(-c3ccc(Nc4nc(Nc5ccc(Cl)cc5)nc(Nc5ccc(Cl)cc5)n4)cc3)nc(N)c2C#N)cc1	13.9 µM	> 100 µM	4.99 µM	> 100 µM	10.6 µM	> 100 µM	–	2.93 µM	5.2 µM	> 100 µM	18.3 µM	> 100 µM	3.58 µM	24.4 µM	6.38 µM	> 100 µM	10.7 µM	> 100 µM	47.6 µM	> 100 µM
COc1ccccc1CNCCN1C(=O)c2ccc3c4c(ccc(c24)C1=O)C(=O)N(CCNCc1ccccc1OC)C3=O	0.204 µM	0.47 µM	0.189 µM	0.406 µM	0.265 µM	0.607 µM	1.71 µM	4.38 µM	0.234 µM	1.09 µM	0.189 µM	0.378 µM	1.26 µM	2.77 µM	0.215 µM	0.505 µM	0.225 µM	0.505 µM	0.841 µM	2.14 µM
O=C(c1cccs1)c1c(C(F)(F)F)n([O-])c2cc(Cl)c(Cl)cc2[n+]1=O	2.72 µM	5.85 µM	0.429 µM	0.913 µM	0.362 µM	3.53 µM	1.41 µM	2.85 µM	0.344 µM	17.4 µM	0.906 µM	2.45 µM	1.96 µM	3.79 µM	1.46 µM	3.47 µM	0.269 µM	1.66 µM	1.9 µM	4.14 µM
CN1CCN(c2c(F)cc(NC3=C(Cl)C(=O)c4ncccc4C3=O)cc2F)CC1	18 µM	35.4 µM	1.78 µM	3.35 µM	1.33 µM	4.99 µM	1.55 µM	3.22 µM	0.494 µM	> 100 µM	4.34 µM	15.3 µM	22.2 µM	55.9 µM	8.82 µM	> 100 µM	15 µM	31.7 µM	1.52 µM	2.95 µM
O=C(Nc1ccc(OC(F)(F)Cl)cc1)c1cnc(N2CC[C@@H](O)C2)c(-c2ccn[nH]2)c1	10.5 µM	33.6 µM	10.8 µM	23.9 µM	22.3 µM	54 µM	17.3 µM	41.3 µM	–	11 µM	4.52 µM	18.3 µM	11.8 µM	30 µM	10.8 µM	54.6 µM	11.8 µM	26.6 µM	11.9 µM	31 µM
OCCCCC#Cc1ccccc1C#Cc1cccc(C(F)(F)F)c1	15.1 µM	28.6 µM	20.9 µM	49.8 µM	24.6 µM	59.5 µM	19.9 µM	36.2 µM	22.5 µM	71.5 µM	21.5 µM	50.5 µM	18.3 µM	34 µM	18.8 µM	35.7 µM	17.2 µM	31.6 µM	17.2 µM	31.6 µM
CSc1nc2nc(-c3ccccc3)c(C)c-2c2n1C(C)C(=O)N2 (stereo unspecified)	40.1 µM	> 100 µM	37.4 µM	> 100 µM	36.4 µM	> 100 µM	40.8 µM	> 100 µM	41.5 µM	> 100 µM	38.6 µM	> 100 µM	35.7 µM	> 100 µM	45.7 µM	> 100 µM	68.2 µM	> 100 µM	18.3 µM	> 100 µM
CC[C@H](C)[C@H](NC(=O)[C@H]1CCCCN1C)C(=O)N(C)[C@H](C[C@@H](OC(C)=O)c1nc(C(=O)NC23CC(C(=O)OC)(C2)C3)cs1)C(C)C	0.00378 µM and 0.00325 µM	> 32.5 µM	0.000878 µM and 0.00325 µM	> 32.5 µM	0.000186 µM and < 0.00325 µM	0.000698 µM and < 0.00325 µM	0.000734 µM	–	–	> 32.5 µM	0.00554 µM and 0.00325 µM	0.00618 µM	0.133 µM	9.18 µM	0.00056 µM and 0.00325 µM	> 32.5 µM	0.00083 µM and 0.00325 µM	> 32.5 µM	0.0109 µM and 0.00564 µM	> 32.5 µM
